Laboratory results taken from PubChem BioAssay (NCI).
“And” between values parts separate entries of the source, which are not always exact repeats. Equal values may be shown once.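 Briefly, cells in 96-well plates were exposed to five compound concentrations for 48 h, and endpoints were estimated by linear interpolation. GI50 = concentration required for 50% inhibition of growth. TGI denotes the concentration required for complete inhibition of growth.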

Legend:
Assay in all cases: growth of human tumour cells (NCI), 48 h
A549 NSCLC = tested on: A549 NSCLC
ACHN renal = tested on: ACHN renal
HCT-15 colon = tested on: HCT-15 colon
IGROV1 ovarian = tested on: IGROV1 ovarian
NCI-H23 lung = tested on: NCI-H23 lung
NCI-H522 lung = tested on: NCI-H522 lung
OVCAR-5 ovarian = tested on: OVCAR-5 ovarian
OVCAR-8 ovarian = tested on: OVCAR-8 ovarian
RPMI-8226 leukemia = tested on: RPMI-8226 leukemia
RXF 393 renal = tested on: RXF 393 renal
SF-539 CNS = tested on: SF-539 CNS
SN12C renal = tested on: SN12C renal
SNB-75 CNS = tested on: SNB-75 CNS
T-47D breast = tested on: T-47D breast
UACC-257 melanoma = tested on: UACC-257 melanoma

SMILES | TGI (A549 NSCLC) | TGI (ACHN renal) | TGI (HCT-15 colon) | TGI (IGROV1 ovarian) | TGI (NCI-H23 lung) | TGI (NCI-H522 lung) | TGI (OVCAR-5 ovarian) | TGI (OVCAR-8 ovarian) | TGI (RPMI-8226 leukemia) | TGI (RXF 393 renal) | TGI (SF-539 CNS) | TGI (SN12C renal) | TGI (SNB-75 CNS) | TGI (T-47D breast) | TGI (UACC-257 melanoma) | GI50 (OVCAR-8 ovarian) | GI50 (RPMI-8226 leukemia) | GI50 (SNB-75 CNS) | GI50 (T-47D breast)
CNC(=O)N(CCC#N)CCCN(C(=O)NC)c1ccccc1 | > 100 µM | > 100 µM | > 100 µM | > 100 µM | > 100 µM | > 100 µM | > 100 µM | > 100 µM | > 100 µM | > 100 µM | > 100 µM | > 100 µM | > 100 µM | > 100 µM | > 100 µM | – | – | – | –
CCCCCCOc1ccc(C(=O)NO)cc1 | 43.3 µM | 21.5 µM | 16.1 µM | 23.2 µM | 23 µM | 19.7 µM | 40.4 µM | 31.6 µM | 29.8 µM | 30.1 µM | 45.7 µM | 19.5 µM | > 67.2 µM | 41.3 µM | > 91.5 µM | – | – | – | –
CCN1C(=O)C(C)S/C1=N\NC(=O)CSc1nc2ccccc2c(=O)n1CC (configuration not stated) | > 100 µM | > 100 µM | > 100 µM | > 100 µM | > 100 µM | > 100 µM | > 100 µM | > 100 µM | > 100 µM | > 100 µM | > 100 µM | > 100 µM | > 100 µM | > 100 µM | > 100 µM | – | – | – | –
Cc1ccc(N=Nc2ccc(O)c(CN(C)C)c2)cc1 | 49.4 µM | 41.8 µM | 50.2 µM | 35 µM | > 100 µM | 32.6 µM | 29.7 µM | 42.3 µM | 48 µM | 34.2 µM | 33.3 µM | > 100 µM | 75.1 µM | 39.5 µM | 32.3 µM | – | – | – | –
N#Cc1c(N)[nH]c(=S)c(C#N)c1-c1ccccc1 | > 100 µM | > 100 µM | > 100 µM | > 100 µM | > 100 µM | > 100 µM | > 100 µM | > 100 µM | > 100 µM | > 100 µM | > 100 µM | > 100 µM | > 100 µM | > 100 µM | > 100 µM | – | – | – | –
C=CCSC1=N/C(=C\c2cccs2)C(=O)N1CC=C | > 100 µM | > 100 µM | > 100 µM | > 100 µM | > 100 µM | > 100 µM | > 100 µM | > 100 µM | 91.3 µM | 64.2 µM | > 100 µM | > 100 µM | – | 69.3 µM | > 100 µM | – | – | – | –
Cc1ncc2c(=O)c3c(oc2n1)c1ccccc1n3Cc1ccccc1 | > 100 µM | > 100 µM | > 100 µM | > 100 µM | > 100 µM | > 100 µM | > 100 µM | > 100 µM | > 100 µM | > 100 µM | > 100 µM | > 100 µM | > 100 µM | > 100 µM | > 100 µM | – | – | – | –
CC(=O)Nc1cc2c3c(c1)CCCN3CCC2 | > 100 µM | > 100 µM | > 100 µM | > 100 µM | > 100 µM | > 100 µM | > 100 µM | > 100 µM | > 100 µM | > 100 µM | > 100 µM | – | > 100 µM | > 100 µM | > 100 µM | – | – | – | –
O=C(c1ccccc1)c1ccc(-n2c3ccccc3c3ccc4c(c32)C(=O)C=CC4=O)cc1 | 36.4 µM | 11.6 µM | 31.3 µM | 37.5 µM | 29.5 µM | 8.9 µM | 38.1 µM | 27.2 µM | > 100 µM | 19.2 µM | 34.2 µM | 28.3 µM | > 58.4 µM | > 22.6 µM | 27.5 µM | – | – | – | –
CCOC(=O)CSc1nnc2cc(CN3CCCC3)c(-c3ccc(Cl)cc3)nn12 | > 100 µM | > 100 µM | > 100 µM | > 100 µM | > 100 µM | > 100 µM | > 100 µM | > 100 µM | > 100 µM | > 100 µM | > 100 µM | > 100 µM | > 100 µM | > 100 µM | > 100 µM | – | – | – | –
O=P1(Oc2ccccc2)N(CCCl)CCN1c1ccccc1 (configuration not stated) | > 100 µM | > 100 µM | > 100 µM | > 100 µM | > 100 µM | > 100 µM | > 100 µM | > 100 µM | > 100 µM | > 100 µM | > 100 µM | > 100 µM | > 100 µM | > 100 µM | > 100 µM | – | – | – | –
CN(NC(=O)c1cccs1)C1=NCCCCN1 | > 100 µM | > 100 µM | > 100 µM | > 100 µM | > 100 µM | > 100 µM | > 100 µM | > 100 µM | > 100 µM | > 100 µM | > 100 µM | – | > 100 µM | > 100 µM | > 100 µM | – | – | – | –
COc1ccc2[nH]cc([C@@H]3C4CCC(C4)[C@H]3NCc3cccc(CN[C@H]4C5CCC(C5)[C@@H]4c4c[nH]c5ccc(OC)cc45)c3)c2c1 | 2.64 µM and 2.99 µM | 2.55 µM and 3.16 µM | 1.95 µM and 2.39 µM | 2.61 µM | 3 µM and 2.93 µM | 2.48 µM and 2.83 µM | 3.12 µM and 2.88 µM | 1.86 µM and 2.35 µM | 1.65 µM and 1.26 µM | 3.1 µM and 2.79 µM | 3.21 µM and 2.5 µM | 3.1 µM and 2.93 µM | 2.59 µM and 2.03 µM | 2.95 µM | 3.15 µM and 2.74 µM | 0.625 µM | 0.66 µM | 0.785 µM | 1.33 µM
C=C[C@@H]1C[C@]2(C(=O)OC)Cc3nc4ccccc4nc3CC(C(=O)OC)=C2O1 | > 100 µM | > 100 µM | > 100 µM | > 100 µM | > 100 µM | > 100 µM | > 100 µM | > 100 µM | > 100 µM | > 100 µM | > 100 µM | > 100 µM | – | > 100 µM | > 100 µM | – | – | – | –
CC(NC(=O)C(N)CC(=O)O)NC(=O)C1CCC1 (configuration not stated) | > 100 µM | > 100 µM | > 100 µM | – | > 100 µM | > 100 µM | > 100 µM | > 100 µM | > 100 µM | > 100 µM | > 100 µM | > 100 µM | > 100 µM | > 100 µM | > 100 µM | – | – | – | –
COC(=O)/C=C1/CCC(C)(C(=O)NS(=O)(=O)c2ccc(C)cc2)C1(C)C (configuration not stated) | > 100 µM | > 100 µM | > 100 µM | > 100 µM | > 100 µM | > 100 µM | > 100 µM | > 100 µM | > 100 µM | > 100 µM | > 100 µM | > 100 µM | – | > 100 µM | > 100 µM | – | – | – | –
COc1cc(S(=O)(=O)Nc2ccc(-c3csc(N)n3)cc2)ccc1Cl | 39.6 µM | 32.8 µM | 43.6 µM | – | 40.1 µM | 42.4 µM | 40.4 µM | 40.7 µM | 65.1 µM | 33.8 µM | > 100 µM | 38.5 µM | 39.2 µM | 23 µM | – | – | – | – | –
CCN(CC)CCNC(=O)c1cc2cc(NC(=O)c3cc4cc(NC(=O)c5cc6cc(N)ccc6[nH]5)ccc4[nH]3)ccc2[nH]1 | > 100 µM | > 100 µM | > 100 µM | > 100 µM | > 100 µM | > 100 µM | > 100 µM | > 100 µM | > 100 µM | > 100 µM | – | > 100 µM | > 100 µM | > 100 µM | > 100 µM | – | – | – | –
COC(=O)[C@@H]1CN(C(C)=O)C(=O)N1C(=O)OCc1ccccc1 | > 100 µM | > 100 µM | > 100 µM | > 100 µM | > 100 µM | > 100 µM | > 100 µM | > 100 µM | > 100 µM | > 100 µM | > 100 µM | > 100 µM | – | > 100 µM | > 100 µM | – | – | – | –
C[C@]12CC/C(=N\O)C=C1CC[C@@H]1[C@@H]2CC[C@]2(C)C(=N/O)/C(=C/c3ccc([N+](=O)[O-])cc3)C[C@@H]12 | > 100 µM | > 100 µM | > 100 µM | 12.5 µM | 75.2 µM | 9.64 µM | – | – | 7.61 µM | > 100 µM | > 100 µM | 30.7 µM | 26.9 µM | 3.69 µM | 33.9 µM | – | – | – | –
CN(C)CCN=C1Nc2ccccc2C(=S)N2CSCC12 (configuration not stated) | > 100 µM | > 100 µM | > 100 µM | > 100 µM | – | > 100 µM | > 100 µM | > 100 µM | > 100 µM | > 100 µM | – | > 100 µM | > 100 µM | > 100 µM | > 100 µM | – | – | – | –
CC(=O)Nc1ccc(-c2nc3ccccc3s2)cc1I | > 100 µM | > 100 µM | > 100 µM | 20 µM | 51.4 µM | > 100 µM | – | 37.7 µM | > 100 µM | 37 µM | 55.6 µM | > 100 µM | 67.4 µM | > 93.2 µM | > 100 µM | – | – | – | –
CCc1n[nH]c(=O)n1/N=C/c1ccc(C)cc1 | > 100 µM | > 100 µM | > 100 µM | > 100 µM | > 100 µM | > 100 µM | > 100 µM | > 100 µM | > 100 µM | > 100 µM | > 100 µM | > 100 µM | – | > 100 µM | > 100 µM | – | – | – | –
C=C(C)[C@H]1C=C[C@@H](OC(=O)c2cccnc2)[C@@]23CO[C@@](C)([C@H](OC(=O)c4cccnc4)[C@@]4(OC(C)=O)C[C@H](C)[C@H](OCCC)[C@@H]4[C@H]2OC(C)=O)[C@H]13 | – | > 15 µM | > 15 µM | > 15 µM | > 15 µM | > 15 µM | > 15 µM | > 15 µM | > 15 µM | > 15 µM | > 15 µM | > 15 µM | > 15 µM | > 15 µM | > 15 µM | – | – | – | –
